Data published in patent US4764603A, “Stable salts of S-adenosyl-L-methionine with polyanions” (priority 1985, dated 1988).
Structures can show the parent of a compound that is named as a salt.

Tests used:
[1] = physchem; type: physicochemical
Protocol: The salts of the present invention are particularly stable even at substantially higher temperatures than the room temperature: an analysis of their thermal stability versus time has, in fact, shown an unlimited stability of these compounds, when maintained in solid phase at 45° C. However, at 75° C., differentiated behaviors of the various salts prepared are observed with respect to one another.

[2] = Text: The liquors are removed by simple decantation and the precipitate is washed twice with 10 l of distilled H2 O while keeping the system under strong stirring.
[3] = Hygroscopicity of the lyophilized or dried solid; type: physicochemical
[4] = system: transmethylation reactions; settings: cited from earlier work
[5] = system: edema; settings: carrageenin and white-of-egg acute edema; adjuvant arthritis; cited from earlier work
[6] = system: pain from myotasis; settings: in vivo; cited from earlier work
[7] = system: steatosis; settings: diet; alcohol, carbon tetrachloride, bromobenzene; cited from earlier work
[8] = system: cholestasis; settings: in vivo; cited from earlier work
[9] = system: osteoarthritis, Parkinson's disease, disorder of sleep, depression, atherosclerosis; settings: cited from earlier work
[10] = system: H ribonuclease; settings: cited from earlier work
[11] = system: methylene tetrahydrofolic reductase; settings: cited from earlier work
[12] = system: ethanolamianephosphate cytidyltransferase; settings: cited from earlier work
[13] = type: physicochemical

## C[S+](CC[C@H](N)C(=O)O)C[C@H]1O[C@@H](n2cnc3c(N)ncnc32)[C@H](O)[C@@H]1O (stereo partly drawn) [Example 3]
[1]
  thermal stability at 75° C. versus SAM chloride and the double salt SAM^+.HSO4^-.H2 SO4.2CH3 C6 H4 SO3 H: higher stability
[2]
  solubilisation time / rate at pH >4 relative to Example 1: slower rate of solubilization
[3]
  hygroscopicity: nonhygroscopic

## Nc1ncnc2c1ncn2[C@@H]1O[C@H](CSCC[C@H](N)C(=O)O)[C@@H](O)[C@H]1O [SAH, S-adenosyl-homocysteine]
[4]
  inhibition of transmethylation reactions: powerful inhibitor

## C[S+](CCCN)C[C@H]1O[C@@H](n2cnc3c(N)ncnc32)[C@H](O)[C@@H]1O (stereo partly drawn) [deca-SAM, S-adenosyl-(5')-3-methylthiopropylamine]
[4]
  inhibition of transmethylation reactions: inhibitor

## C[S+](CC[C@H](N)C(=O)O)C[C@H]1O[C@@H](n2cnc3c(N)ncnc32)[C@H](O)[C@@H]1O (stereo partly drawn) [Example 1, salt of SAM with the polyparastyrene sulfonate]
[1]
  stability of the salt at 45° C.: unlimited
  thermal stability at 75° C. versus SAM chloride and the double salt SAM^+.HSO4^-.H2 SO4.2CH3 C6 H4 SO3 H: higher stability

## C[S+](CC[C@H](N)C(=O)O)C[C@H]1O[C@@H](n2cnc3c(N)ncnc32)[C@H](O)[C@@H]1O (stereo partly drawn) [Example 2]
[2]
  solubilisation time / rate at pH >4 relative to Example 1: increase in solubilisation times
[3]
  hygroscopicity: nonhygroscopic

## C[S@@+](CC[C@H](N)C(=O)O)C[C@H]1O[C@@H](n2cnc3c(N)ncnc32)[C@H](O)[C@@H]1O [SAM, 5'-[[(3S)-3-amino-3-carboxy-propyl]methyl-(S)-sulfone]-5'-deoxyadenosine]
[5]
  anti-inflammatory effect: ANTI-INFLAMMATORY
[6]
  analgesic effect: ANALGESIC
[7]
  hepatoprotective effect: HEPATOPROTECTIVE
[8]
  bile fluidifying effect: BILE FLUIDIFYING
[9]; Parkinson's disease
  clinical effect: akinesia and rigidity: IMPROVES AKINESIA
  effect on the action of levodopa: ENHANCING
[9]; atherosclerosis
  clinical effect: psycho-affective sphere: IMPROVES
[9]; disorder of sleep mechanism or of waking-sleeping rhythm
  effect on sleep: SLEEP INDUCING
[9]; in vivo
  antidepressant effect: ANTIDEPRESSANT
  clinical effect: (depressive) symptomatology: REDUCES OR RESOLVES
[9]; osteoarthritis
  clinical effect: muscular spasms: improves
[10]
  inhibition of H ribonuclease: inhibitor
[10]; from calf thymus gland
  inactivation of H ribonuclease: irreversible inactivation
[11]
  inhibition of methylene tetrahydrofolic reductase: inhibitor
[12]
  inhibition of ethanolaminephosphate cytidyltransferase: inhibitor

## C[S+](CC[C@H](N)C(=O)O)C[C@H]1O[C@@H](n2cnc3c(N)ncnc32)[C@H](O)[C@@H]1O (stereo partly drawn) [Example 4]
[1]
  half-life time at 75° C.: more than one
  stability of the salt at 45° C.: unlimited
  thermal stability at 75° C. versus SAM chloride and the double salt SAM^+.HSO4^-.H2 SO4.2CH3 C6 H4 SO3 H: higher stability
[2]
  solubilization at pH >4: solubilizes rapidly
[13]
  residual acidity: negligible
[3]
  hygroscopicity: nonhygroscopic

## C[S+](CC[C@H](N)C(=O)O)C[C@H]1O[C@@H](n2cnc3c(N)ncnc32)[C@H](O)[C@@H]1O (stereo partly drawn) [Example 7]
[1]
  thermal stability at 75° C. versus SAM chloride and the double salt SAM^+.HSO4^-.H2 SO4.2CH3 C6 H4 SO3 H: higher stability

## C[S+](CC[C@H](N)C(=O)O)C[C@H]1O[C@@H](n2cnc3c(N)ncnc32)[C@H](O)[C@@H]1O (stereo partly drawn) [Example 9]
[1]
  stability of the salt at 45° C.: unlimited
  thermal stability at 75° C. versus SAM chloride and the double salt SAM^+.HSO4^-.H2 SO4.2CH3 C6 H4 SO3 H: higher stability
[2]; pH 6
  solubilization at pH 6: solubilizes rapidly
[13]
  residual acidity: negligible
[3]
  hygroscopicity: nonhygroscopic

## C[S+](CC[C@H](N)C(=O)O)C[C@H]1O[C@@H](n2cnc3c(N)ncnc32)[C@H](O)[C@@H]1O (stereo partly drawn) [Example 5]
[1]
  stability of the salt at 45° C.: unlimited
  thermal stability at 75° C. versus SAM chloride and the double salt SAM^+.HSO4^-.H2 SO4.2CH3 C6 H4 SO3 H: higher stability
[1]; solid phase, half-life time at 75° C.
  half-life: > 240 h
[2]; pH 7
  solubilization at pH 7: rapidly solubilized
[13]
  residual acidity: negligible
[3]
  hygroscopicity: nonhygroscopic
